# Source: ChEMBL document CHEMBL1201862, “PubChem BioAssay data set” (2004)
#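 48-hour exposure; five concentrations; linearly interpolated endpoints. Abbreviation: GI50, concentration required for 50% inhibition of growth.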 Calls of active or inactive are those of the source. Cut-off read from the data, not from the text of the source: active = GI50 up to about 1.1 µM and inactive = higher.
# Tests used:
# Test in all cases: NCI anticancer screen, dose series, 48 h
# SW-620 = test system: SW-620
# DMS-114 = test system: DMS-114
# M14 = test system: M14
# HCT-116 = test system: HCT-116
# NCI-H226 = test system: NCI-H226
# HOP-92 = test system: HOP-92
# HOP-18 = test system: HOP-18
# RXF 631 = test system: RXF 631
# RXF 393 = test system: RXF 393
# EKVX = test system: EKVX
# SNB-78 = test system: SNB-78
# UACC-257 = test system: UACC-257
# HL-60 = test system: HL-60
# HT-29 = test system: HT-29
# TK-10 = test system: TK-10
# IGROV-1 = test system: IGROV-1
# LXFL 529 = test system: LXFL 529
# HCT-15 = test system: HCT-15
# UO-31 = test system: UO-31
# DLD-1 = test system: DLD-1
# OVCAR-8 = test system: OVCAR-8
# HCC 2998 = test system: HCC 2998
# NCI-H460 = test system: NCI-H460
# OVCAR-5 = test system: OVCAR-5
# DMS-273 = test system: DMS-273
# MOLT-4 = test system: MOLT-4
# SK-MEL-5 = test system: SK-MEL-5
# KM-20L2 = test system: KM-20L2
# SF-539 = test system: SF-539
# KM12 = test system: KM12
# OVCAR-4 = test system: OVCAR-4
# SF-295 = test system: SF-295
# K562 = test system: K562
# COLO 205 = test system: COLO 205
# HOP-62 = test system: HOP-62
# U-251 = test system: U-251
# SN12C = test system: SN12C
# A549 = test system: A549
# UACC-62 = test system: UACC-62
# CCRF-CEM = test system: CCRF-CEM
# NCI-H23 = test system: NCI-H23
# SF-268 = test system: SF-268
# XF498 = test system: XF498
# OVCAR-3 = test system: OVCAR-3
# SNB-75 = test system: SNB-75
# SK-OV-3 = test system: SK-OV-3
# LOX IMVI = test system: LOX IMVI
# SNB-19 = test system: SNB-19
# SK-MEL-2 = test system: SK-MEL-2
# ACHN = test system: ACHN
# SR = test system: SR
# RPMI-8226 = test system: RPMI-8226
# SK-MEL-28 = test system: SK-MEL-28
# Malme-3M = test system: Malme-3M
# A498 = test system: A498
# M19-MEL = test system: M19-MEL
# NCI-H522 = test system: NCI-H522
# 786-0 = test system: 786-0
# CAKI-1 = test system: CAKI-1
compound,measurement,setting,value
Nc1nnc(O)c2c1c(I)cn2C1OC(CO)C(O)C1O (centres undefined),GI50,SW-620,0.0904 µM (active)
same,GI50,DMS-114,1.43 µM (inactive)
same,GI50,M14,0.64 µM (active)
same,GI50,HCT-116,0.232 µM (active)
same,GI50,NCI-H226,3.04 µM (inactive)
same,GI50,HOP-92,0.805 µM (active)
same,GI50,HOP-18,3.05 µM (inactive)
same,GI50,RXF 631,0.295 µM (active)
same,GI50,RXF 393,1.06 µM (active)
same,GI50,EKVX,1.3 µM (inactive)
same,GI50,SNB-78,1.17 µM (inactive)
same,GI50,UACC-257,2.15 µM (inactive)
same,GI50,HL-60,0.118 µM (active)
same,GI50,HT-29,0.122 µM (active)
same,GI50,TK-10,3.01 µM (inactive)
same,GI50,IGROV-1,0.643 µM (active)
same,GI50,LXFL 529,0.646 µM (active)
same,GI50,HCT-15,0.188 µM
same,GI50,UO-31,1.52 µM (inactive)
same,GI50,DLD-1,0.082 µM (active)
same,GI50,OVCAR-8,0.105 µM (active)
same,GI50,HCC 2998,0.208 µM (active)
same,GI50,NCI-H460,0.0728 µM (active)
same,GI50,OVCAR-5,0.689 µM (active)
same,GI50,DMS-273,0.125 µM (active)
same,GI50,MOLT-4,0.0474 µM (active)
same,GI50,SK-MEL-5,1.89 µM (inactive)
same,GI50,KM-20L2,2.49 µM (inactive)
same,GI50,SF-539,0.526 µM (active)
same,GI50,KM12,0.393 µM (active)
same,GI50,OVCAR-4,1.3 µM (inactive)
same,GI50,SF-295,1.43 µM (inactive)
same,GI50,K562,0.75 µM (active)
same,GI50,COLO 205,0.708 µM (active)
same,GI50,HOP-62,2.5 µM (inactive)
same,GI50,U-251,1.09 µM (active)
same,GI50,SN12C,0.284 µM (active)
same,GI50,A549,2.07 µM (inactive)
same,GI50,UACC-62,3.12 µM (inactive)
same,GI50,CCRF-CEM,0.129 µM (active)
same,GI50,NCI-H23,0.5 µM (active)
same,GI50,SF-268,2.21 µM (inactive)
same,GI50,XF498,2.96 µM (inactive)
same,GI50,OVCAR-3,0.0745 µM (active)
same,GI50,SNB-75,0.718 µM (active)
same,GI50,SK-OV-3,> 100 µM (inactive)
same,GI50,LOX IMVI,0.112 µM (active)
same,GI50,SNB-19,7.93 µM (inactive)
same,GI50,SK-MEL-2,0.0226 µM (active)
same,GI50,ACHN,0.592 µM (active)
same,GI50,SR,0.0466 µM (active)
same,GI50,RPMI-8226,0.35 µM (active)
same,GI50,SK-MEL-28,1.18 µM (inactive)
same,GI50,Malme-3M,0.778 µM (active)
same,GI50,A498,5.56 µM (inactive)
CCOC(=O)c1cc(C(=O)O)c(=O)n2c1[nH]c1ccccc12,GI50,SW-620,> 100 µM (inactive)
same,GI50,M19-MEL,> 100 µM (inactive)
same,GI50,DMS-114,> 100 µM (inactive)
same,GI50,M14,> 100 µM (inactive)
same,GI50,HCT-116,40.7 µM (inactive)
same,GI50,HOP-18,42.1 µM (inactive)
same,GI50,RXF 631,> 100 µM (inactive)
same,GI50,RXF 393,24.3 µM (inactive)
same,GI50,EKVX,> 100 µM (inactive)
same,GI50,SNB-78,> 100 µM (inactive)
same,GI50,UACC-257,> 100 µM (inactive)
same,GI50,HL-60,> 100 µM (inactive)
same,GI50,HT-29,> 100 µM (inactive)
same,GI50,TK-10,> 100 µM (inactive)
same,GI50,IGROV-1,88.9 µM (inactive)
same,GI50,LXFL 529,75.7 µM (inactive)
same,GI50,HCT-15,46.7 µM
same,GI50,UO-31,23.9 µM (inactive)
same,GI50,DLD-1,99.8 µM (inactive)
same,GI50,OVCAR-8,> 100 µM (inactive)
same,GI50,NCI-H522,26.7 µM (inactive)
same,GI50,HCC 2998,> 100 µM (inactive)
same,GI50,NCI-H460,89.9 µM (inactive)
same,GI50,DMS-273,56.1 µM (inactive)
same,GI50,786-0,> 100 µM (inactive)
same,GI50,MOLT-4,> 100 µM (inactive)
same,GI50,SK-MEL-5,60.8 µM (inactive)
same,GI50,KM-20L2,> 100 µM (inactive)
same,GI50,SF-539,36.4 µM (inactive)
same,GI50,KM12,> 100 µM (inactive)
same,GI50,OVCAR-4,> 100 µM (inactive)
same,GI50,SF-295,> 100 µM (inactive)
same,GI50,K562,> 100 µM (inactive)
same,GI50,COLO 205,> 100 µM (inactive)
same,GI50,HOP-62,> 100 µM (inactive)
same,GI50,CAKI-1,> 100 µM (inactive)
same,GI50,U-251,83.4 µM (inactive)
same,GI50,SN12C,> 100 µM (inactive)
same,GI50,A549,60.8 µM (inactive)
same,GI50,UACC-62,44.5 µM (inactive)
same,GI50,CCRF-CEM,> 100 µM (inactive)
same,GI50,NCI-H23,26.9 µM (inactive)
same,GI50,SF-268,61 µM (inactive)
same,GI50,XF498,> 100 µM (inactive)
same,GI50,OVCAR-3,> 100 µM (inactive)
same,GI50,SNB-75,31.8 µM (inactive)
same,GI50,SK-OV-3,78.7 µM (inactive)
same,GI50,SNB-19,44.3 µM (inactive)
same,GI50,SK-MEL-2,> 100 µM (inactive)
same,GI50,ACHN,> 100 µM (inactive)
same,GI50,RPMI-8226,46.3 µM (inactive)
same,GI50,SK-MEL-28,26.2 µM (inactive)
same,GI50,Malme-3M,> 100 µM (inactive)
same,GI50,A498,> 100 µM (inactive)
